In patent US20120245031A1, “Pesticidal Mixtures” (BASF SE, priority 2009, published 2012):

How the values were obtained:
Format in all cases: in vivo
[1] = tested on: wheat plants of the imidazolinone tolerant variety ‘BW755’; assay: Transpiration (water loss) of cut wheat plants as indicator for drought tolerance, fluxapyroxad / imazamox (Example 1); details: solo; for Mean water loss: 24 h at 25° C.; for Observed efficacy: decrease of water loss vs control, 24 h
Description: The transpiration of wheat plants treated or not treated with fluxapyroxad solo, imazamox solo, and mixtures thereof was assessed as an indicator for drought tolerance. 10 to 14 days old wheat plants were cut above the ground and placed into Eppendorf caps containing 2.2 ml of the test solution. The wheat plants were incubated for 24 h at 25° C. and 50% relative humidity in a growth chamber. The weight of the Eppendorf cap including the test solution but excluding the plant was assessed before and after incubation. The difference in weight is recorded as the loss of water through transpiration. This assay can be used to asses the drought tolerance of plants.
(§1) In the present example wheat plants of the imidazolinone tolerant variety ‘BW755’ were grown at 18° C. for 10 days in the greenhouse prior to the treatment and the incubation. 10 plants per treatment were treated and incubated as described. Fluxapyroxad and imazamox were dissolved in 0.5% DMSO. The 0.5% DMSO solution consisted of 0.5% DMSO dissolved in water. The tested concentrations are described in table 2. Control plants were treated with the blank 0.5% DMSO solution only.
The efficacy of the tested compounds and respective mixtures was calculated as % of water loss compared to the control: […]
(§2) a corresponds to water loss of plants after incubation in the treated plants in g and b corresponds to water loss of plants after incubation in the control in g.

[2] = tested on: potted imidazolinone tolerant wheat, variety ‘BW755’; assay: Greenhouse pot trial, total shoot biomass (dry weight) of wheat, fluxapyroxad / imazamox (Example 2); details: solo; for Shoot dry weight: 7 days following the last treatment; for Observed efficacy: increase of biomass vs untreated control
Description: (§3) Wheat was grown in 2010 in the greenhouse at the agricultural center at Limburgerhof, Germany. The imidazolinone tolerant variety ‘BW755’ was planted in pots. The trial was setup with 8 replications with one pot 10 plants each per replication.
(§4) The active ingredients were used as formulations. The formulations were used in the product rates given below and in table 3. The products were applied in a total spray volume of 375 l/ha. Products were diluted in water. The spray solution was applied in a spray cabinet using a spray boom with flat fan nozzles.
Imazamox was applied once as Raptor™ (120 g active per liter soluble concentrate) when the wheat plants had the first leaf fully developed (BBCH 11). Fluxapyroxd was applied once as an experimental emulsion concentrate (62.5 g active ingredient per liter) at 2 to 3 leaves fully developed (BBCH 12/13). The application of the mixture was carried out as a sequence, wherein Raptor™ was applied when the first leave had developed while the fluxapyroxad formulation was applied when 2-3 leaves had developed.
(§5) Total shoot biomass was assessed (table 3) by harvesting all plants of a pot 7 days following the last treatment (expressed as g per pot). Afterwards, dry weight of total shoot biomass per pot was evaluated. After measuring fresh weight, the samples were dried in a drying cabinet at 65° C. for two days. The efficacy was calculated as % increase of biomass in the treatments compared to the untreated control:
(§6) a corresponds to the biomass of the treated plants in g/pot and b corresponds to the biomass of the untreated (control) plants in g/pot

[3] = tested on: wheat plants of the imidazolinone tolerant variety ‘BW755’; assay: Transpiration (water loss) of cut wheat plants as indicator of drought tolerance, fluxapyroxad / imazethapyr (Example 3); details: for Mean water loss / Observed efficacy: solo; for Mean water loss: 24 h; for Observed efficacy: decrease of water loss vs control
Description: The transpiration as an indicatior of drought tolerance of wheat plants treated or not treated with fluxapyroxad solo, imazethapyr solo, and mixtures thereof was assessed. 10 to 14 days old wheat plants were cut above the ground and placed into Eppendorf caps containing 2.2 ml of the test solution. The wheat plants were incubated for 24 h at 25° C. and 50% relative humidity in a growth chamber. The weight of the Eppendorf cap including the test solution but excluding the leaves was assessed before and after incubation. The difference in weight was recorded as the loss of water through transpiration. This assay is generally used to asses the drought tolerance of plants.
as §1, with “imazethapyr” for “imazamox”, “are as” for “are”, “4.” for “2.”
The efficacy of the tested compounds and mixtures was calculated as % of water loss compared to the control: […]
as §2

[4] = tested on: potted imidazolinone tolerant wheat, variety ‘BW755’; assay: Greenhouse pot trial, total shoot biomass (dry weight) of wheat, fluxapyroxad / imazethapyr (Example 4); details: solo; for Shoot dry weight: 7 days after the last treatment; for Observed efficacy: increase of biomass vs untreated control
Description: as §3
as §4, with “6.” for “3.”
Imazethapyr was applied once as PIVOT 100 SL™ (100 g active per liter soluble concentrate) when the wheat plants had the first leaf fully developed (BBCH 11). Fluxapyroxd was applied once as an experimental emulsion concentrate (62.5 g active ingredient per liter) when 2 to 3 leaves were fully developed (BBCH 12/13). The application of the mixture was applied as a sequence of PIVOT 100 SL™ at the stage when the first leave had developed and while the fluxapyroxad formulation was applied when 2-3 leaves had developed.
as §5, with “6)” for “3)”, “after” for “following”, “Dry” for “Afterwards, dry”
as §6

[5] = 10 ppm, first experiment (table 4)
[6] = 10 ppm, repeated experiment (table 5)
[7] = 50 ppm, first experiment (table 4)
[8] = 100 ppm, first experiment (table 4)
[9] = 100 ppm, repeated experiment (table 5)
[10] = 1 ppm, first experiment (table 4)
[11] = 500 ppm, first experiment (table 4)

With Cn1cc(C(=O)Nc2ccccc2-c2cc(F)c(F)c(F)c2)c(C(F)F)n1 [Fluxapyroxad, N-(3′,4′,5′-trifluorobiphenyl-2-yl)-3-difluoromethyl-1-methyl-1H-pyrazole-4-carboxamide] the Mean water loss ([1]; 50 ppm) was 0.794 g, the Observed efficacy ([1]; 50 ppm) was 17.68% and the Observed efficacy ([1]; 50 ppm, listed as fluxapyroxad) was “about 18%”. It also gave a Shoot dry weight ([2]; 10.00 g/ha) of 0.619 g/pot, an Observed efficacy ([2]; 10.00 g/ha) of 3.80% and a Shoot dry weight ([2]; 50.00 g/ha) of 0.604 g/pot. For the same molecule, the Observed efficacy ([2]; 50.00 g/ha) was 1.41%, the Shoot dry weight ([2]; 100.00 g/ha) was 0.604 g/pot and the Observed efficacy ([2]; 100.00 g/ha) was 1.30%. It also gave a Mean water loss [3, 5] of 0.853 g, a Mean water loss [3, 6] of 1.266 g and an Observed efficacy [3, 5] of 14.59%. For the same molecule, the Observed efficacy [3, 6] was 10.46%, the Mean water loss [3, 7] was 0.728 g and the Observed efficacy [3, 7] was 27.16%. The Mean water loss [3, 8] was 0.647 g, the Mean water loss [3, 9] was 0.628 g and the Observed efficacy [3, 8] was 35.22%. For the same molecule, the Observed efficacy [3, 9] was 55.60%, the Shoot dry weight ([4]; 10 g/ha) was 0.638 g/pot and the Observed efficacy ([4]; 10 g/ha) was −4.75%. It also gave a Shoot dry weight ([4]; 50 g/ha) of 0.617 g/pot, an Observed efficacy ([4]; 50 g/ha) of −7.88% and a Shoot dry weight ([4]; 100 g/ha) of 0.649 g/pot. It also gave an Observed efficacy ([4]; 100 g/ha) of −3.16%.
COCc1cnc(C2=NC(C)(C(C)C)C(=O)N2)c(C(=O)O)c1 (stereo not shown) [Imazamox, imazamox] gave a Mean water loss ([1]; 50 ppm) of 0.907 g, an Observed efficacy ([1]; 50 ppm) of 5.92% and a Mean water loss ([1]; 100 ppm) of 0.855 g. The Observed efficacy ([1]; 100 ppm) was 11.32%, the Mean water loss ([1]; 150 ppm) was 1.001 g and the Observed efficacy ([1]; 150 ppm) was −3.88%. The Shoot dry weight ([2]; 8.75 g/ha) was 0.631 g/pot, the Observed efficacy ([2]; 8.75 g/ha) was 5.83% and the Observed efficacy ([2]; 8.75 g/ha, listed as imazamox) was “about 6%”. The Shoot dry weight ([2]; 17.50 g/ha) was 0.559 g/pot, the Observed efficacy ([2]; 17.50 g/ha) was −6.29% and the “reduction of dry biomass” value ([2]; 35 g imazamox per ha) was “about 14%”. The Shoot dry weight ([2]; 35.00 g/ha) was 0.513 g/pot and the Observed efficacy ([2]; 35.00 g/ha) was −13.93%.
In the case of CCc1cnc(C2=NC(C)(C(C)C)C(=O)N2)c(C(=O)O)c1 (stereo not shown) [Imazethapyr, imazethapyr], the Mean water loss [3, 10] is reported as 1.249 g, the Observed efficacy [3, 10] is reported as −25.04% and the Mean water loss [3, 6] is reported as 1.435 g. It also gave an Observed efficacy [3, 6] of −1.52%, a Mean water loss [3, 11] of 0.878 g and an Observed efficacy [3, 11] of 12.12%. The “effect on water loss, in words” value ([3]; alone at 10 ppm, second experiment, table 5) was “tended to be neutral”, the “reduction of dry biomass” value ([4]; 17.5 g imazethapyr per ha) was “about 1%” and the Shoot dry weight ([4]; 17.5 g/ha) was 0.665 g/pot. The Observed efficacy ([4]; 17.5 g/ha) was −0.72%, the “reduction of dry biomass” value ([4]; 35 g imazethapyr per ha) was “about 9%” and the Shoot dry weight ([4]; 35 g/ha) was 0.609 g/pot. It also gave an Observed efficacy ([4]; 35 g/ha) of −9.07%.
